This is an account of results in patent US11149068B2, “Pore-forming peptides and uses thereof” (The Administrators of the Tulane Educational Fund, priority 2018, dated 2021).

Ends that are not written are not given here.

Series [1] is described as follows: Macromolecular leakage assay (release of 40 kDa TAMRA-biotin-dextran from lipid vesicles). It is filed as biochemical. To be noted: for dextran release at pH 7: peptide to lipid ratios as high as 1:50. As to the method:
(§1) Large unilamellar vesicles for leakage assays were prepared as previously described (37) in 100 mM potassium chloride, with 10 mM sodium phosphate or 10 mM sodium acetate buffer. For small molecule leakage, lipids, dried from chloroform, were resuspended in buffer made of: 12.5 mM ANTS, 45 mM DPX, 5 mM HEPES, and 20 mM sodium chloride. For macromolecular leakage assays, lipids were resuspended in buffer with 1 mg/ml TAMRA-biotin-dextran (TBD). Lipid suspensions were frozen and thawed ten times and then extruded 10 times using a 0.1 um pore size Nuclepore polycarbonate filter (38). After extrusion, external ANTS and DPX were removed by gel filtration with Sephadex G100. External TBD was removed using streptavidin agarose resin.
As described previously (33), 40 nM Alexafluor488-labelled streptavidin (SA) was added to a solution of vesicles with entrapped TBD. This solution was added to wells of a 96-well plate containing peptide, and the plate was incubated for 60 min. Release of the 40 kDa dextran enables TBD-SA complex formation, which leads to quenching of the AF488 fluorescence (excitation 495 nm, emission at 519 nm) by TAMRA. The fraction of macromolecule leakage was determined by Equation 2:
[formula] where I is the intensity at 60 min, Ibackground is the intensity of a vesicle control with no peptide, and Itriton is the intensity in the presence of vesicles and 0.1% v/v of the detergent Triton X-100, added to solubilize the vesicles and release the ANTS.
Step 4: Next, to the same wells, a different preparation of vesicles was added. These vesicles have entrapped 40 kDa TBD and external Alexafluor488 streptavidin. The TBD vesicles were in sodium acetate buffer at pH 4 so that the final pH in each well was 5.0. This second addition of vesicles increased the total volume to 200 μl which decreased peptide to 2.5 μM and decreased ANTS vesicle concentration to 0.5 mM. The new TBD vesicles were present at 1.5 mM so that the total peptide to total lipid ratio was roughly about 1:800.
Step 5: After 60 minutes, the intensity of the AF488-streptavidin was measured to quantitate macromolecule release, which is calculated with equation 2. This orthogonal and sequential screen gives two measurements that are used to identify peptides with the desired properties: i) Small molecule release at pH 7 and P:L=1:200; ii) Macromolecule release at pH 5 and P:L=1:800.
Verification of positive peptides. Since the selected peptides are very similar to each other, a subset of them were synthesized and purified for detailed validation. Tested peptides included four representative sequences with five acidic residues, pHD24, pHD34, pHD108 and pHD118 as well as pHD15, one of the two with six acidic residues. Because there is interest in pH-triggered macromolecule release at low pH, the positive peptides were validated with the macromolecular release assay using 40 kDa dextran and 53 kD streptavidin, described above. Dextran leakage was measured as functions of peptide concentration and pH using vesicles made from phosphatidylcholine lipids.

The nature of series [2]: Small molecule leakage assay (ANTS/DPX release from lipid vesicles). It counts as biochemical. Conditions: screen conditions. As for the experimental part: as §1, with “External TBD was removed using streptavidin agarose resin.” left out
Lipid vesicles with entrapped ANTS and DPX were diluted into wells of a 96 well plate containing peptide. After 30 minutes, vesicle permeabilization was measured by an increase in ANTS fluorescence, with excitation at 350 nm and emission at 519 nm. Fractional leakage was quantified using Equation 1: […]
Step 2: Aliquots of peptides in water from the plate in Step 1 were added to wells of a second plate, followed by addition of 1 mM lipid vesicles in 100 μl of sodium phosphate buffer at pH 7. […] Leakage, if it occurs, causes an increase in fluorescence of ANTS. […]
Step 3: After 30 minutes of incubation, ANTS fluorescence was measured for each well to quantitate small molecule release using equation 1.

Series [3] relates to Chinese Hamster Ovary cells. In words: Cell viability, Alamar Blue assay. To be noted: ten minutes with peptide at pH 5 or pH 7, overnight recovery; except at the highest concentration. It is filed as cell-based. As for the experimental part:
FIGS. 7A-7B are graphs showing the effect of peptides on the viability Chinese Hamster Ovary cells incubated with either the lytic peptide MelP5, or the pH-triggerred membrane permeabilizing peptide pHD108. Cells were grown to 50% confluency, and then treated for ten minutes with peptide in cell culture media at pH 5 (FIG. 7A) or at pH 7 (FIG. 7B). Full media with growth factors was added and the cells recovered overnight. Viability was assessed with the Alamar Blue assay. The values were normalized to cells treated with media only (negative control) and media only, no cells (positive control).
(In general: The colour change of resazurin is a common sign of viable cells or microbes.)

The nature of series [4]: Circular dichroism spectroscopy of peptide secondary structure in the presence of vesicles versus pH. It counts as physicochemical. Conditions: P:L=1:200. As to the method: FIGS. 5A-5B are graphs depicting example binding and folding data. FIG. 5A: Circular dichroism spectra of pHD108 (SEQ ID NO: 9) versus pH at P:L=1:200 in 1 mM POPC vesicles. Separate samples are made at each pH and equilibrated for 30 minutes prior to the measurement. The spectra show a structural transition from random coil at pH 7 to classical α-helix at pH<5.75. FIG. 5B: Tryptophan fluorescence spectra of pHD108 at P:L=1:200 in 1 mM POPC vesicles. Separate samples are made at each pH and equilibrated for 30 minutes prior to the measurement. The spectra show a transition from a more polar, water-exposed environment to a less polar or buried environment consistent with peptide partitioning into bilayers.
Peptide secondary structure in the presence of vesicles as a function of pH was studied by circular dichroism spectroscopy. Example CD spectra for pHD108 at P:L=1:200 are seen in FIG. 5A and show a pH-triggered transition from random coil to α-helical structure with an effective pKa around 5.5. Circular dichroism was measured in a JASCO 810 spectropolarimeter. Samples in buffers of various pH were prepared by mixing peptide and vesicle solutions, each prepared at the needed pH. Spectra were collected on samples of 2 mM vesicles and 10 μM peptide in 1 mm path rectangular quartz cuvette after 1 hour of equilibration.
For orientation: CD spectra are sensitive to the conformation of chiral molecules.

Turning to “GIGAVLKVLATGLPALISWIKAAQQL [MelP5, synthetically evolved gain-of-function variant of melittin, non pH-sensitive macromolecular pore-former]”, the macromolecule release entry in series [1] (screen conditions, 1 nmol, all pH values) was “partial”. In addition, the “release of macromolecule probe (TBD)” value in series [1] (screen conditions, 4 nmol (P:L=1:100)) was “essentially complete release”. Moreover, in series [2] (4 nmol), the “release of small molecule probe (ANTS)” value is listed as “essentially complete release”.

Turning to GIGDVLHELAADLPELQEWIHAAQQL [pHD24], the “dextran release at pH 7” value in series [1] was “no activity”.

GIGEVLHELADDLPDLQEWIHAAQQL [pHD15]: in series [1] (P:L=1:200, 1 mM POPC vesicles, 40 kDa dextran), the “apparent pKa of macromolecule leakage (curve midpoints)” value is listed as “lowest apparent pKa value”. In addition, the “dextran release at pH 7” value in series [1] is reported as “no activity”.

GIGEVLHELAEGLPELQEWIHAAQQL [pHD108]: the “toxicity to mammalian cells” value in series [3] is “did not exhibit toxicity”. Moreover, in series [4], the “effective pKa of transition from random coil to α-helical structure” value is listed as “around 5.5”.

Turning to Triton X-100, the “release of macromolecule probe (TBD)” value in series [1] (screen conditions, 0.1% v/v) is recorded as “essentially complete release”. The “release of small molecule probe (ANTS)” value in series [2] (0.1% v/v) is listed as “essentially complete release”.
